21 compounds from patent publication US10800754B2, “Heterocyclic amide compound” (TAKEDA PHARMACEUTICAL COMPANY LIMITED, priority 2016, dated 2020) can be followed below.

This test addresses T1, human PRS protein (Homo sapiens, UniProt P07814).
T1 construct: to construct His-Avi-hEPRS (998-1512) expression plasmid; His tag (N); Avi tag (N); TEV cleavage site (ENLYFQ/GS, encoded by forward primer hEPRS-TEV-NheF) (N); made in house; host or cells: E. coli BL21(DE3)
T1 sequence (P07814 998-1512): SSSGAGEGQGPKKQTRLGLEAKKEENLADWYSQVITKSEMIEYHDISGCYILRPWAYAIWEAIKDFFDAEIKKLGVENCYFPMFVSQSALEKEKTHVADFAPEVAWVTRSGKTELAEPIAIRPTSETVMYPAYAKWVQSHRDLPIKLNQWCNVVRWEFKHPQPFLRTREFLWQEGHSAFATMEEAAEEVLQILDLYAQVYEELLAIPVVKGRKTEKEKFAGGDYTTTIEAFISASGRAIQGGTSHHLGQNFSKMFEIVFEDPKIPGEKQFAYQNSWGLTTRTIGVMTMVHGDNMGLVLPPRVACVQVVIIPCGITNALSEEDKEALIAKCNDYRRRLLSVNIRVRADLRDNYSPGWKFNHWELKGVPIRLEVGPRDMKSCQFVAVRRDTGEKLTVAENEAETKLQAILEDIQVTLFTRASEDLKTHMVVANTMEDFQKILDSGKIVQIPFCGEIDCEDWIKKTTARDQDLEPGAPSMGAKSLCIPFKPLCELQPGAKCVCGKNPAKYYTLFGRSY
Description: PRS inhibitory activity (ATP/[32P]pyrophosphate exchange enzyme reaction). Particulars: 300 nM test compound; recombinant human PRS (EPRS 998-1512); read-out: inhibitory rate (%) of PRS. In kind it is biochemical. Here is the method:
The PRS inhibitory activity of the compounds of the present invention was evaluated by the following method.
An expression plasmid of Catalytic Domain of human EPRS was obtained by PCR using human skeletal muscle cDNA Library (Takara Bio Inc.) as a template and 2 kinds of Primers 5′-[…]-3′ (hEPRS-TEV-NheF) (SEQ ID NO: 1) and 5′-[…]-3′ (hEPRS-St-Not-R) (SEQ ID NO: 2). PCR was performed using PrimeStar GXL DNA Polymerase (Takara Bio Inc.) and included (1) 98° C., 1 min, (2) cycles of 98° C., 10 sec, 65° C., 10 sec, 72° C., 1 min, and (3) reaction at 72° C., 1 min. This was cleaved with Nhe I and Not I (Takara Bio Inc.) and inserted using Ligation High (TOYOBO CO., LTD.) into the Nhe I/Not I site of pET21a (Novagen) with His-Avitag inserted thereinto. This was introduced into ECOS JM109 (NIPPON GENE CO., LTD.) to construct His-Avi-hEPRS (998-1512) expression plasmid.
Recombinant human PRS protein was prepared by transforming the His-Avi-hEPRS (998-1512) expression plasmid prepared above into ECOS Competent E. coli BL21(DE3) (NIPPON GENE CO., LTD.). Escherichia coli obtained by transformation was inoculated into 300 mL of LB medium (1% peptone, 0.5% yeast extract, 0.5% sodium chloride, 0.01% ampicillin) and cultured at 30° C. for 16 hr. The obtained culture medium was transferred into a jar culture tank charged with 6 L of the main fermentation medium (0.3% potassium dihydrogen phosphate, 0.6% disodium hydrogen phosphate, 0.1% ammonium chloride, 0.05% sodium chloride, 0.024% magnesium sulfate, 0.02% NEWPOL LB-625, 1.5% sorbitol, 1.5% casamino acid, 0.5% yeast extract, 0.01% ampicillin) and culturing was started at 37° C., quantity of airflow 5 L/min, stirring rotating speed 400 rpm. At the time point when the turbidity of the culture medium reached about 550 Klett units, the culture temperature was lowered to 16° C., isopropyl-β-D-thiogalactopyranoside (IPTG) was added to the final concentration 0.1 mM, and culturing was performed for another 16 hr to induce expression of human PRS. After completion of culturing, the culture medium was centrifuged at 5,000 rpm for 10 min. The obtained human PRS expressing Escherichia coli was suspended in a buffer containing 50 mM Tris-HCl (pH 8.0), 150 mM NaCl, 1 mM DTT, 5 U/ml Benzonase, 20 mM Imidazole and sonicated using Sonifier (BRANSON). The homogenate was centrifuged (33,000×G, 60 min, Beckman Coulter), the obtained supernatant was subjected to adsorption by passage through Ni-NTA Superflow (QIAGEN) column equilibrated in advance with 50 mM Tris-HCl (pH 8.0), 300 mM NaCl, 1 mM DTT, and elution was performed with a buffer containing 50 mM Tris-HCl (pH 8.0), 300 mM NaCl, 1 mM DTT, 250 mM Imidazole. Furthermore, gel filtration was performed using […] equilibrated in advance with a buffer containing 50 mM Tris-HCl (pH 8.0), 150 mM NaCl, 1 mM DTT, 10% glycerol to give purified human PRS protein. The protein concentration was measured using BCA Protein Assay Kit (PIERCE) and BSA as the standard.
A test compound was dissolved in 5 μL of an assay buffer (50 mM Tris-HCl (pH 7.5), 20 mM KCl, 1 mM DTT, 0.01% Tween 20) and incubated for 60 min with 5 μL of 40 nM human PRS protein dissolved in the assay buffer containing 40 mM MgCl2. An enzyme reaction of the human PRS protein was started by adding 10 μL of a substrate solution containing 300 μM ATP, 160 μM L-Proline, 400 μM pyrophosphate, [^32P]pyrophosphate (PerkinElmer, Waltham, Mass.) prepared to 1 MBq/mL. After incubation at room temperature for 30 min, the reaction was discontinued by adding 50 μL of discontinuation/washing solution (1M HCl, 200 mM sodium pyrophosphate) to the reaction mixture. The reaction solution was transferred to a filter plate (Merck Millipore, Billerica, Mass.) previously added with 200 μL of charcoal solution (0.5% HCl solution containing 10% charcoal (w/v)). […]

`N#C[C@@]1(C2CC2)CCN(c2ccnc(NC(=O)Cc3cccc(Cl)c3)c2)C1=O` [Example 1, 2-(3-chlorophenyl)-N-(4-((3S)-3-cyano-3-cyclopropyl-2-oxopyrrolidin-1-yl)pyridin-2-yl)acetamide]: the inhibition at 0.3 µM turned out to be 84%. Next, `N#C[C@@]1(C2CC2)CCN(c2ccnc(NC(=O)Cc3ccccc3)c2)C1=O` [Example 2, N-(4-((3S)-3-cyano-3-cyclopropyl-2-oxopyrrolidin-1-yl)pyridin-2-yl)-2-phenylacetamide]: 85%; `N#C[C@@]1(C2CC2)CCN(c2ccnc(NC(=O)Cc3cccc4ccccc34)c2)C1=O` [Example 3, N-(4-((3S)-3-cyano-3-cyclopropyl-2-oxopyrrolidin-1-yl)pyridin-2-yl)-2-(1-naphthyl)acetamide]: 93%. Regarding `N#C[C@@]1(C2CC2)CCN(c2ccnc(NC(=O)Cc3ccccc3Cl)c2)C1=O` [Example 5, 2-(2-chlorophenyl)-N-(4-((3S)-3-cyano-3-cyclopropyl-2-oxopyrrolidin-1-yl)pyridin-2-yl)acetamide], the inhibition at 0.3 µM came out at 62%. Take `N#C[C@@]1(C2CC2)CCN(c2ccnc(NC(=O)Cc3cccc(-c4ccccc4)c3)c2)C1=O` [Example 9, 2-(biphenyl-3-yl)-N-(4-((3S)-3-cyano-3-cyclopropyl-2-oxopyrrolidin-1-yl)pyridin-2-yl)acetamide]: the inhibition at 0.3 µM came out at 94%. As for `COc1cccc(CC(=O)Nc2cc(N3CC[C@@](C#N)(C4CC4)C3=O)ccn2)c1` [Example 10, N-(4-((3S)-3-cyano-3-cyclopropyl-2-oxopyrrolidin-1-yl)pyridin-2-yl)-2-(3-methoxyphenyl)acetamide], the inhibition at 0.3 µM was 88%. Regarding `Cc1cccc(CC(=O)Nc2cc(N3CC[C@@](C#N)(C4CC4)C3=O)ccn2)c1` [Example 11, N-(4-((3S)-3-cyano-3-cyclopropyl-2-oxopyrrolidin-1-yl)pyridin-2-yl)-2-(3-methylphenyl)acetamide], the inhibition at 0.3 µM turned out to be 85%.

In the case of `N#C[C@@]1(C2CC2)CCN(c2ccnc(NC(=O)Cc3cccc(F)c3)c2)C1=O` [Example 13, N-(4-((3S)-3-cyano-3-cyclopropyl-2-oxopyrrolidin-1-yl)pyridin-2-yl)-2-(3-fluorophenyl)acetamide], the inhibition at 0.3 µM worked out at 89%.

In the case of `N#C[C@@]1(C2CC2)CCN(c2ccnc(NC(=O)Cc3ccccc3F)c2)C1=O` [Example 14, N-(4-((3S)-3-cyano-3-cyclopropyl-2-oxopyrrolidin-1-yl)pyridin-2-yl)-2-(2-fluorophenyl)acetamide], the inhibition at 0.3 µM was 70%. `N#C[C@@]1(C2CC2)CCN(c2ccnc(NC(=O)Cc3ccsc3)c2)C1=O` [Example 15, N-(4-((3S)-3-cyano-3-cyclopropyl-2-oxopyrrolidin-1-yl)pyridin-2-yl)-2-(3-thienyl)acetamide]: the inhibition at 0.3 µM is 84%. Then `N#C[C@@]1(C2CC2)CCN(c2ccnc(NC(=O)Cc3cccs3)c2)C1=O` [Example 16, N-(4-((3S)-3-cyano-3-cyclopropyl-2-oxopyrrolidin-1-yl)pyridin-2-yl)-2-(2-thienyl)acetamide], with 88%; and `N#C[C@@]1(C2CC2)CCN(c2ccnc(NC(=O)Cc3ccc(Cl)s3)c2)C1=O` [Example 17, 2-(5-chloro-2-thienyl)-N-(4-((3S)-3-cyano-3-cyclopropyl-2-oxopyrrolidin-1-yl)pyridin-2-yl)acetamide], with 83%. As to `N#C[C@@]1(C2CC2)CCN(c2ccnc(NC(=O)Cc3cccc(Br)c3)c2)C1=O` [Example 21, 2-(3-bromophenyl)-N-(4-((3S)-3-cyano-3-cyclopropyl-2-oxopyrrolidin-1-yl)pyridin-2-yl)acetamide], the inhibition at 0.3 µM amounted to 89%. As for `C=CC[C@]1(C#N)CCN(c2ccnc(NC(=O)Cc3cccc(-c4cnn(C)c4)c3)c2)C1=O` [Example 22, N-(4-((3R)-3-allyl-3-cyano-2-oxopyrrolidin-1-yl)pyridin-2-yl)-2-(3-(1-methyl-1H-pyrazol-4-yl)phenyl)acetamide], the inhibition at 0.3 µM turned out to be 87%. Consider `C=CC[C@]1(C#N)CCN(c2ccnc(NC(=O)Cc3cccc(-c4ccsc4)c3)c2)C1=O` [Example 24, N-(4-((3R)-3-allyl-3-cyano-2-oxopyrrolidin-1-yl)pyridin-2-yl)-2-(3-(3-thienyl)phenyl)acetamide], for which the inhibition at 0.3 µM was 71%. In the case of `C=CC[C@]1(C#N)CCN(c2ccnc(NC(=O)Cc3cccc(-c4ccncc4)c3)c2)C1=O` [Example 25, N-(4-((3R)-3-allyl-3-cyano-2-oxopyrrolidin-1-yl)pyridin-2-yl)-2-(3-(pyridin-4-yl)phenyl)acetamide], the inhibition at 0.3 µM was 61%. Turning to `N#C[C@@]1(C2CC2)CCN(c2ccnc(NC(=O)Cc3csc4ccccc34)c2)C1=O` [Example 28, 2-(1-benzothiophen-3-yl)-N-(4-((3S)-3-cyano-3-cyclopropyl-2-oxopyrrolidin-1-yl)pyridin-2-yl)acetamide], the inhibition at 0.3 µM was 94%. Consider `N#CC1(C2CCC2)CCN(c2ccnc(NC(=O)Cc3cccc4ccccc34)c2)C1=O` (stereo not drawn) [Example 33, N-(4-(3-cyano-3-cyclobutyl-2-oxopyrrolidin-1-yl)pyridin-2-yl)-2-(1-naphthyl)acetamide], for which the inhibition at 0.3 µM was found to be 80%. Take `N#C[C@@]1(C2CC2)CCN(c2ccnc(NC(=O)Cc3cccc(-c4cccnc4)c3)c2)C1=O` [Example 34, N-(4-((3S)-3-cyano-3-cyclopropyl-2-oxopyrrolidin-1-yl)pyridin-2-yl)-2-(3-(pyridin-3-yl)phenyl)acetamide]: the inhibition at 0.3 µM turned out to be 97%. As for `N#Cc1ccc(-c2cccc(CC(=O)Nc3cc(N4CC[C@@](C#N)(C5CC5)C4=O)ccn3)c2)s1` [Example 36, N-(4-((3S)-3-cyano-3-cyclopropyl-2-oxopyrrolidin-1-yl)pyridin-2-yl)-2-(3-(5-cyano-2-thienyl)phenyl)acetamide], the inhibition at 0.3 µM came to 96%. Turning to `Cn1cc(-c2cccc(CC(=O)Nc3cc(N4CCC(C)(C)C4=O)ccn3)c2)cn1` [Example 43, N-(4-(3,3-dimethyl-2-oxopyrrolidin-1-yl)pyridin-2-yl)-2-(3-(1-methyl-1H-pyrazol-4-yl)phenyl)acetamide], the inhibition at 0.3 µM stood at 88%.
